Patent US12616672B2, “Methods for assessing risk of cardiovascular disease and methods and compounds for use in treating or preventing cardiovascular disease” (Queen Mary University of London, priority 2017, dated 2026)

What was measured:
[1] = system: peripheral blood leukocytes and platelets from CVD patients; experiment: CVD patient whole blood incubated with RvD2n-3 DPA or RvD5n-3 DPA then PAF, flow cytometry; format: cell-based, human; details: 15 min then PAF 30 min
Procedure: (§1) Whole blood was incubated with RvD2n-3 DPA or RvD5n-3 DPA (0.1 nM, 1 nM or 10 nM) or vehicle (PBS containing 0.01% EtOH) for 15 min then with PAF (100 ng/ml) for 30 min (37° C.). Expression of CD62P on (A) neutrophils (B) monocytes and CD11b on (C) neutrophils and (D) monocytes was investigated using flow cytometry and fluorescently labelled antibodies. Results are mean±s.em. and expressed as percentage of PAF incubated cells. n=9 patients per interval. * p<0.05 vs Veh group using one-sample t test, followed by Sidak correction of p values.
as §1, with “labeled” for “labelled”, “group.” for “interval.”, “PAF” for “Veh”, “Wilcoxon Signed Rank Test.” for “one-sample t test, followed by Sidak correction of p values.”
After stimulation, samples were washed twice with PBS for 12 min at 800×g. Samples were stained for flow cytometry as described below.
Whole blood was incubated with lineage-specific markers for 45 min (4° C., in DPBS containing 0.02% BSA). The following anti-human antibodies were used: VioBlue-anti-CD41, PE-Cy5-anti-CD62P, Brilliant Violet 711-anti-CD11b, APC-Cy7-anti-CD16, Alexa Fluor 647-anti-CD14. After staining, red blood cells were lysed using Whole Blood Lysing Reagent Kit, according to the manufacturer's instructions. Data was collected using a flow cytometer and analysis was conducted using appropriate software.

platelet rich plasma = experiment: PRP incubations with RvD5n-3 DPA then PAF, platelet adhesion molecule expression by flow cytometry; format: cell-based, human; details: 0.1-10 nM, 15 min, then PAF 100 nM 30 min
Procedure: FIG. 21: RvD2n-3 DPA and RvD5n-3 DPA reduce monocyte, neutrophil and platelet activation in healthy volunteer peripheral blood. […] Cell activation and leukocyte-platelet aggregates were assessed using flow cytometry. (A,B) Images depicting platelet monocyte (A) and (B) platelet-neutrophil aggregates. Results are representative of n=3 distinct experiments. (C,D) Cumulative neutrophil (C) CD11b and (D) CD62P expression. (E,F) Monocyte (E) CD11b and (F) CD62P expression. Results are mean of n=5 per condition and expressed as percentage change from PAF incubated cells. *p<0.05 compared to PAF using Wilcoxon Signed Rank Test. (G) Platelet rich plasma was incubated with vehicle (PBS) or RvD5n-3 DPA 0.1-10 nM (15 min; 37° C.) and PAF (100 nM; 30 min; 37° C.). Adhesion molecule expression evaluated using flow cytometry. Results are mean±s.e.m. n=5 healthy volunteers. * p, 0.05 compared to Vehicle group using Friedman's test followed by Dunn's multiple comparisons test.
Peripheral blood from healthy volunteers was collected in acidified-citrate-dextrose. Blood was centrifuged at 500×g for 20 min. PRP was collected and cells incubated with RvD5n-3 DPA or vehicle (0.01% EtOH+PBS) for 15 min at 37° C. Cells were then incubated with PAF (100 nM) or Vehicle (0.01% EtOH) for 30 min at 37° C. Cells were then washed with PBS and cellular activation was assessed using flow cytometry as detailed below.
In select experiments platelet adhesion molecule expression was assessed. Here platelets were incubated with fluorescently labelled mouse anti-human VioBlue-anti-CD41, PE-Cy5-anti-CD62P, PerCP/Cy5.5-anti-CD63 and FITC-ant-CD42b for 30 min at 4° C. Cells were then washed and fluorescence, staining evaluated using LSRFortessa cell analyser (BD Biosciences) and analysed using FlowJo software (Tree Star Inc., V10).

Apo E^−/− mice [2] = experiment: Apo E−/− mice given RvD5n-3 DPA: aortic arch Oil red-O staining; format: in vivo; details: 100 ng/mouse i.v., alternate days, 2 weeks; vs vehicle
Procedure: (§2) Mice (male and female) were fed a western diet for 6 weeks from 4 weeks of age and kept of a 12 h light dark cycle. At 8 weeks of age, mice were given RvD5n-3 DPA (100 ng/mouse; i.v.) or vehicle on alternate days for a 2-week period. Mice were culled, aortic arches were collected and stained using oil-red O as in Khambata R S et al. Anti-inflammatory actions of inorganic nitrate stabilize the atherosclerotic plaque. Proc Natt Acad Sci USA. 2017; 114(4):E550-E559, the contents of which are incorporated herein by reference. Staining intensity was determined using image processing software and expressed as relative units per mm^2. The descending aorta was collected, placed in ice-cold methanol and lipid mediators identified and quantified as described above.

Apo E^−/− mice [3] = experiment: Apo E−/− mice on western diet given RvD5n-3 DPA: blood leukocyte and platelet activation by flow cytometry; format: in vivo; details: 100 ng/mouse i.v., alternate days, 2 weeks; vs vehicle
Procedure: as §2
In separate experiments blood was collected from Apo E^−/− mice using heparin-lined syringes via cardiac puncture. Cells were incubated with Fc-blocking IgG and anti-mouse CD11b-PE-Texas Red, CD62P-Brilliant Violet650™, CD115-Brilliant Violet 711™, and CD41-Brilliant Violet 510™ (Biolegend). for 45 minutes on ice. Red blood cells were lysed and fixed using Whole Blood Lysing Reagent Kit. Staining was then evaluated using a flow cytometer and analysis was conducted using appropriate software.

[4] = system: peripheral blood leukocytes and platelets from CVD patients; experiment: CVD patient whole blood incubated with RvD2n-3 DPA or RvD5n-3 DPA then PAF, flow cytometry; format: cell-based, human

CC/C=C\C[C@H](O)/C=C/C=C\C/C=C\C=C\[C@@H](O)CCCCCC(=O)O [RvD5n-3 DPA, 7,17-trihydroxy-8E,10,13,15E,19Z-docosapentaenoic acid]
expression of CD11b on monocytes [1]: decreased
expression of CD11b on neutrophils [1]: decreased
platelet-monocyte aggregates measured as CD62P and CD41 expression [1]: decreases
platelet-neutrophil aggregates measured as CD62P and CD41 expression [1]: decreases
PAF mediated upregulation of CD41 expression on platelets (platelet rich plasma): dose dependent reduction
PAF mediated upregulation of CD62P expression on platelets (platelet rich plasma): dose dependent reduction
PAF mediated upregulation of CD63 expression on platelets (platelet rich plasma): dose dependent reduction
aortic lesions (Oil red-O staining) (Apo E^−/− mice [2]): significant reduction
circulating platelet-monocyte aggregates (CD41 and CD62P expression on CD115 positive cells) (Apo E^−/− mice [3]): reduced
monocyte activation, CD11b expression (Apo E^−/− mice [3]): decrease
platelet-neutrophil aggregates and neutrophil activation (Apo E^−/− mice [3]): significant reduction
reduction in neutrophil CD11b expression (Apo E^−/− mice [3]): > 60%
expression of CD62P on peripheral blood platelets [4]: dose-dependently regulated
expression of CD63 on peripheral blood platelets [4]: dose-dependently regulated
